Patent US7879853B2, “4,6-disubstituted pyrimidines and their use as protein kinase inhibitors” (Bayer Schering Pharma AG, priority 2004, dated 2011)

Experiments:
MCF7 cells = assay: Cellular proliferation/cytotoxicity assay (Alamar Blue), MCF7; format: cell-based; conditions: Homo sapiens; MCF7, 48 hours, Alamar Blue (Resazurin); read-out: Anti-proliferative/cytotoxic activity: IC50 MCF7
Description: (§1) The anti-proliferative activity of the compounds as described herein, is evaluated using MCF7 and MDA-MB-468 (ATCC HTB-22 and HTB-132) cell lines and the Alamar Blue (Resazurin) cell viability assay (O'Brien et al. Eur J Biochem 267, 5421-5426, 2000). Resazurin is reduced to the fluorescent rescrufin by cellular dehydrogenase activity, correlating with viable, proliferating cells. Test compounds are dissolved as 10 mM solutions in DMSO and subsequently diluted. MCF7 or […] cells were seeded into 96 well flat bottom plates at a density of 10000 cells/well (MCF7) or 5000 cells/well (MDA-MB-468) in a volume of 200 μl/well. 24 hours after seeding, 1 μl each of the compound dilutions are added into each well of the 96 well plates. Each compound dilution is tested as at least as duplicates. Wells containing untreated control cells were filled with 200 μl DMEM containing 0.5% v:v DMSO. The cells are then incubated with the substances for 48 hours at 37° C. in a humidified atmosphere containing 5% carbon dioxide. To determine cell viability, 20 μl of a Resazurin solution (Sigma; 90 mg/l) are added. After 4 hours incubation at 37° C. the fluorescence is measured at an extinction of 544 nm and an emission of 590 nm (Wallac Victor2; Perkin Elmer, USA). For the calculation of the cell viability the emission value from untreated cells is set as 100% viability and the emission rates of treated cells are set in relation to the values of untreated cells. Viabilities are expressed as % values. The corresponding IC50 values of the compounds for cytotoxic activity are determined from the concentration-effect curves by means of non-linear regression. The analysis of the data is performed using a biostatistical program (GraphPad Prism, USA).

MDA-MB-468 cells = assay: Cellular proliferation/cytotoxicity assay (Alamar Blue), MDA-MB-468; format: cell-based; conditions: Homo sapiens; MDA-MB-468, 48 hours, Alamar Blue (Resazurin); read-out: Anti-proliferative/cytotoxic activity: IC50 MDA468
Description: as §1

GST-ΔPH-Akt1 = biological target: T1, GST-ΔPH-Akt1 (Homo sapiens, UniProt P31749); assay: Biochemical ΔPH Akt1 assay (flashplate, 33P-ATP, histone 2B); conditions: GST-ΔPH-Akt1, histone 2B substrate, 100 nM ATP, 80 minutes at 30° C.; read-out: Akt inhibition: IC50 (inhibition of deltaPHAkt1)
T1 construct: named GST-deltaPH-Akt1; 107480aa; cloned in the pAcG1 vector; made in house; host or cells: SF9 insect cells (pAcG1 vector), co-expressed with PDK1
T1 sequence (P31749 107-480 limits assumed, stated change not applied): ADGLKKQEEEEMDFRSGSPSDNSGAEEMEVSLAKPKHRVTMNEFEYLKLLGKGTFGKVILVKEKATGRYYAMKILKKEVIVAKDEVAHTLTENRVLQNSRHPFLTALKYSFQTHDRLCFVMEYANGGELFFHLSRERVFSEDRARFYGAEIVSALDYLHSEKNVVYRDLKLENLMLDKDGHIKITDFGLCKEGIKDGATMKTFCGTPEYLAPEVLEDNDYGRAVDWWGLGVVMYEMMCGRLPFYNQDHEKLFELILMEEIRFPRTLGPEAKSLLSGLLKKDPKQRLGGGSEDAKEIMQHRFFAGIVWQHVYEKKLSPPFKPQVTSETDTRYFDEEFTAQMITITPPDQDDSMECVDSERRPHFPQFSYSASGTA
Description: For the biochemical assay ΔPHAkt1 was used devoid of its PH domain as a GST fusion protein (named GST-deltaPH-Akt1; 107480aa; cloned in the pAcG1 vector (BD Biosciences Pharmingen)), co-expressed with PDK1 in SF9 insect cells. The protein was purified using glutathion-affinity chromatography by standard protocols.
In order to study the inhibition of Akt according to the invention, a flashplate-based assay has been developed.
The Akt1 assay is a biochemical assay using Akt1 devoid of its PH domain and co-expressed with PDK1 in insect cells. The GST-ΔPH-Akt1 assay is run in 96 well plates by incubating 100 ng/well GST-ΔPH-Akt1, 100 ng/well histone 2B (Roche, #223514) as substrate, 10 μl of compound of invention (test compounds were dissolved as 10 mM solutions in dimethylsulfoxide (DMSO) and subsequently diluted) and 100 nM ATP (including ^33P-ATP) in 100 μl of reaction buffer ([…], pH7.5; 3 mM MgCl2; 3 mM MnCl2; 3 μM Na-Orthovanadat; 1 mM DTT; 1 μg/ml PEG8000) for 80 minutes at 30° C. The reactions are terminated by adding 100 μl stopping buffer (2% H3PO4 for 5 minutes) and are washed 3 times by using washing buffer (0.9% NaCl). Relying on the incorporation of ^33P into the protein substrate histone 2B, the detection is based on the adhesion of the phosphorylated protein to the surface of scintillator-coated flash plates (NEN, USA; #SMP-200). This phosphorylation is measured by counting the plate for 60 sec. using a plate reader (Wallac Microbeta; Perkin Elmer, USA). The analysis of the data is performed using a biostatistical program (GraphPad Prism, USA).

| melting point | IC50 (GST-ΔPH-Akt1) | Structure (SMILES) | IC50 (MCF7 cells) | IC50 (MDA-MB-468 cells) |
| --- | --- | --- | --- | --- |
| 164 to 170 °C | ≤ 5 µM | NCc1ccc(C(=O)Nc2ccc(Nc3cc(-c4cccc5c4oc4ccccc45)ncn3)cc2)nc1.O=C(O)C(F)(F)F [Compound 77, 5-Aminomethyl-pyridine-2-carboxylic acid [4-(6-dibenzofuran-4-yl-pyrimidin-4-ylamino)-phenyl]-amide trifluoroacetate] |  |  |
| 130 to 140 °C |  | CNCc1ccc(C(=O)Nc2ccc(Nc3cc(-c4cccc5c4oc4ccccc45)ncn3)cc2)cc1.O=C(O)C(F)(F)F [Compound 63, N-[4-(6-Dibenzofuran-4-yl-pyrimidin-4-ylamino)-phenyl]-4-methylaminomethyl-benzamide trifluoroacetate] | ≤ 16.6 µM | ≤ 6.05 µM |
| 180 to 185 °C | ≤ 5 µM | Cc1ccc(NC(=O)c2ccc(CN)cc2)cc1Nc1cc(-c2cccc3c2oc2ccccc23)ncn1.O=C(O)C(F)(F)F [Compound 67, 4-Aminomethyl-N-[3-(6-dibenzofuran-4-yl-pyrimidin-4-ylamino)-4-methyl-phenyl]-benzamide trifluoroacetate] |  |  |
| 184 °C (dec.) | ≤ 5 µM | NCc1cncc(C(=O)Nc2ccc(Nc3cc(-c4cccc5c4oc4ccccc45)ncn3)cc2)c1 [Compound 74, 5-Aminomethyl-N-[4-(6-dibenzofuran-4-yl-pyrimidin-4-ylamino)-phenyl]-nicotinamide] |  |  |
| > 250 °C | ≤ 5 µM | COCCNc1ccc(C(=O)Nc2ccc(Nc3cc(-c4cccc5c4oc4ccccc45)ncn3)cc2)cc1.O=C(O)C(F)(F)F [Compound 71, N-[4-(6-Dibenzofuran-4-yl-pyrimidin-4-ylamino)-phenyl]-4-(2-methoxyethylamino)benzamide trifluoroacetate] |  |  |
| > 200 °C (dec.) | ≤ 5 µM | NCc1ccc(C(=O)Nc2ccc(Nc3cc(-c4cccc5c4oc4ccccc45)ncn3)cc2)c(F)c1 [Compound 72, 4-Aminomethyl-N-[4-(6-dibenzofuran-4-yl-pyrimidin-4-ylamino)-phenyl]-2-fluorobenzamide] |  |  |
| 146 °C | ≤ 5 µM | O=C(Nc1ccc(Nc2cc(-c3cccc4c3oc3ccccc34)ncn2)cc1)c1ccc2c(c1)CCNC2.O=C(O)C(F)(F)F [Compound 78, 1,2,3,4-Tetrahydro-isoquinoline-6-carboxylic acid [4-(6-dibenzofuran-4-yl-pyrimidin-4-ylamino)-phenyl]-amide trifluoroacetate] | ≤ 16.6 µM | ≤ 6.05 µM |

Continued, compound first:

| Structure (SMILES) | melting point | IC50 (GST-ΔPH-Akt1) | IC50 (MCF7 cells) | IC50 (MDA-MB-468 cells) |
| --- | --- | --- | --- | --- |
| NCc1cccc(C(=O)Nc2ccc(Nc3cc(-c4cccc5c4oc4ccccc45)ncn3)cc2)c1.O=C(O)C(F)(F)F [Compound 54, 3-Aminomethyl-N-[4-(6-dibenzofuran-4-yl-pyrimidin-4-ylamino)-phenyl]-benzamide trifluoroacetate] | 238 to 240 °C |  | ≤ 16.6 µM | ≤ 6.05 µM |
| Nc1ccccc1C(=O)Nc1cccc(Nc2cc(-c3cccc4c3oc3ccccc34)ncn2)c1.O=C(O)C(F)(F)F [Compound 59, 2-Amino-N-[3-(6-dibenzofuran-4-yl-pyrimidin-4-ylamino)-phenyl]-benzamide trifluoroacetate] | 140 to 150 °C | ≤ 5 µM |  |  |
| N=C(N)c1ccc(C(=O)Nc2ccc(Nc3cc(-c4cccc5c4oc4ccccc45)ncn3)cc2)cc1 [Compound 47, 4-Carbamimidoyl-N-[4-(6-dibenzofuran-4-yl-pyrimidin-4-ylamino)-phenyl]-benzamide] |  |  | ≤ 16.6 µM | ≤ 6.05 µM |
| Nc1cccc(C(=O)Nc2ccc(Nc3cc(-c4cccc5c4oc4ccccc45)ncn3)cc2)c1.O=C(O)C(F)(F)F [Compound 51, 3-Amino-N-[4-(6-Dibenzofuran-4-yl-pyrimidin-4-ylamino)-phenyl]-benzamide trifluoroacetate] | 140 to 147 °C | ≤ 5 µM |  |  |
| O=C(Nc1ccc(Nc2cc(-c3cccc4c3oc3ccccc34)ncn2)cc1)c1ccc(Cl)c(Cl)c1 [Compound 9, 3,4-Dichloro-N-[4-(6-dibenzofuran-4-yl-pyrimidin-4-ylamino)-phenyl]-benzamide] | 317 to 321 °C | ≤ 5 µM |  |  |
| N#Cc1ccc(C(=O)Nc2ccc(Nc3cc(-c4cccc5c4oc4ccccc45)ncn3)cc2)cc1 [Compound 46, 4-Cyano-N-[4-(6-dibenzofuran 4-yl-pyrimidin-4-ylamino)-phenyl]-benzamide] |  | ≤ 5 µM |  |  |
| CN(C)Cc1ccc(C(=O)Nc2ccc(Nc3cc(-c4cccc5c4oc4ccccc45)ncn3)cc2)cc1 [Compound 12, N-[4-(6-Dibenzofuran-4-yl-pyrimidin-4-ylamino)-phenyl]-4-dimethylaminomethyl-benzamide] | 299 °C | ≤ 5 µM |  |  |
| O=C(Nc1ccc(Nc2cc(-c3cccc4c3oc3ccccc34)ncn2)cc1)c1ccc(C2CCCNC2)cc1.O=C(O)C(F)(F)F (centres unmarked) [Compound 52, N-[4-(6-Dibenzofuran-4-yl-pyrimidin-4-ylamino)-phenyl]-4-piperidin-3-yl-benzamide trifluoroacetate] | 140 to 147 °C |  | ≤ 16.6 µM | ≤ 6.05 µM |
| CN(C)c1ccc(C(=O)Nc2cccc(Nc3cc(-c4cccc5c4oc4ccccc45)ncn3)c2)cc1 [Compound 42, N-[3-(6-Dibenzofuran-4-yl-pyrimidin-4-ylamino)-phenyl]-4-dimethylamino-benzamide] | > 250 °C | ≤ 5 µM |  |  |
| N=C(N)c1cccc(C(=O)Nc2ccc(Nc3cc(-c4cccc5c4oc4ccccc45)ncn3)cc2)c1 [Compound 45, 3-Carbamimidoyl-N-[4-(6-dibenzofuran-4-yl-pyrimidin-4-ylamino)-phenyl]-benzamide] | 300 to 306 °C |  | ≤ 16.6 µM | ≤ 6.05 µM |
| O=C(Nc1ccc(Nc2cc(-c3cccc4c3oc3ccccc34)ncn2)cc1)c1ccncc1 [Compound 11, N-[4-(6-Dibenzofuran-4-yl-pyrimidin-4-ylamino)-phenyl]-isonicotinamide] | 283 to 295 °C | ≤ 5 µM |  |  |
| NCc1cccc(C(=O)Nc2cccc(Nc3cc(-c4cccc5c4oc4ccccc45)ncn3)c2)c1.O=C(O)C(F)(F)F [Compound 61, 3-Aminomethyl-N-[3-(6-dibenzofuran-4-yl-pyrimidin-4-ylamino)-phenyl]-benzamide trifluoroacetate] | 150 to 156 °C | ≤ 5 µM |  |  |
| O=C(Nc1ccc(Nc2cc(-c3cccc4c3oc3ccccc34)ncn2)cc1)c1cccc(N2CCCC2)c1 [Compound 6, N-[4-(6-Dibenzofuran-4-yl-pyrimidin-4-ylamino)-phenyl]-3-pyrrolidin-1-ylbenzamide] | 250 to 255 °C | ≤ 5 µM |  |  |
| Nc1ccc(C(=O)Nc2cccc(Nc3cc(-c4cccc5c4oc4ccccc45)ncn3)c2)cc1.O=C(O)C(F)(F)F [Compound 62, 4-Amino-N-[3-(6-dibenzofuran-4-yl-pyrimidin-4-ylamino)-phenyl]-benzamide trifluoroacetate] | 185 to 188 °C | ≤ 5 µM |  |  |
